Like-named read-outs stand apart in the source and are kept apart here.
Tests used:
[1] = target: T1, human calpain I (Homo sapiens, UniProt P07384); assay: Effects on human calpain I (acellular, Suc-Leu-Tyr-AMC fluorescence); assay type: biochemical; conditions: enzyme purified from human erythrocytes; 1 h at 25°C; read-out: Inhibition human calpain I, acellular [IC50 (nM)]
T1 construct: enzyme purified from human erythrocytes; purchased Calbiochem 208713; host or cells: human erythrocytes (native tissue source)
T1 sequence (P07384 1-714): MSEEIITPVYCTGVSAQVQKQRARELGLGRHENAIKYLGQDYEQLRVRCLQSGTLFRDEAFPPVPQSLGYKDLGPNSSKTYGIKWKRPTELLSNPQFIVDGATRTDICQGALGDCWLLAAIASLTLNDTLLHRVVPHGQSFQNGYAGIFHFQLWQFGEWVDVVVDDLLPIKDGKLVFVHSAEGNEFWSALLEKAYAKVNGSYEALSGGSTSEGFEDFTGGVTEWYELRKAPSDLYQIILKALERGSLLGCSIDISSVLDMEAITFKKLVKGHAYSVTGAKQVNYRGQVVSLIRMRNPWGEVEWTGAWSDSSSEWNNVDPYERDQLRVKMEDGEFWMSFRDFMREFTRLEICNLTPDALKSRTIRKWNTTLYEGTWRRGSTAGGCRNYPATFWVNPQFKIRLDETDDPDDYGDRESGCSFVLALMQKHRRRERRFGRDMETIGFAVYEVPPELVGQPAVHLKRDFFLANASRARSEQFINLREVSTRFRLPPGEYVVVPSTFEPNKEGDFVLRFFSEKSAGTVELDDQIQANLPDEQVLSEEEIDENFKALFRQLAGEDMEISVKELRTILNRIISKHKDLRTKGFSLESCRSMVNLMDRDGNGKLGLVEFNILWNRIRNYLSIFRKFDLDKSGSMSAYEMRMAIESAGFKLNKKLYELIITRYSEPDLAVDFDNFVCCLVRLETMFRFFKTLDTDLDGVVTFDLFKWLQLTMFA
T1 sequence (P04632 1-268 partner): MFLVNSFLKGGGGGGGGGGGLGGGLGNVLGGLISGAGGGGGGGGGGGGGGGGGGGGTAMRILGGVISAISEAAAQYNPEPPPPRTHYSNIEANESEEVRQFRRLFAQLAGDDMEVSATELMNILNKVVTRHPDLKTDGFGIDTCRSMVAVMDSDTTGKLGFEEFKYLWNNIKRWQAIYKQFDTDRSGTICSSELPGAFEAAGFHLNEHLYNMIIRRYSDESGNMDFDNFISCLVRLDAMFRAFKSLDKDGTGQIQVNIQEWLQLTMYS
Protocol: The test consists of measuring the activity of the enzyme (enzyme purified from human erythrocytes) which is incubated in a buffer in the presence of a peptide substrate coupled with a fluorochrome (amino-methylcourmarin, AMC) and calcium. The enzyme activated by the calcium, proteolyses the substrate and releases the AMC fragment. The AMC released fluoresces at 460 nm under excitation at 380 nm. The activity of the enzyme is therefore proportional to the quantity of fluorescence i.e. of free AMC fragment. The fluorescence (380/460 nm) is measured using a multi-well fluorimeter (Victor 2, Wallac).
Assay is carried out in 96-well microplates with transparent bottoms and black walls in which 10 μl per well of substance to be tested in DMSO 10%, 45 μl of reaction mixture containing the human calpain I at 2.2 U/ml (Calbiochem, ref: 208713), the Suc Leu Tyr-AMC substrate (Bachem, ref: I-1355) at 1.1 mM in a buffer (Tris-HCl 110 mM; NaCl 110 mM; EDTA 2.2 mM; EGTA 2.2 mM; mercaptoethanol 1.1 mM) are distributed. The reaction is initiated by adding 45 μl of CaCl2 22mM. To determine the background noise, control wells without calcium are added to the plate (10 μL DMSO 10%+45 μL of buffer with the enzyme and the susbtrate +45 μL H2O). In order to determine the total activity of the enzyme control wells containing no product are added to the plate (10 μL DMSO 10%+45 μL of buffer with the enzyme and the substrate +45 μL of CaCl2 22 mM ). Each concentration of the products (0.1 nM to 10 μM) is tested in duplicate. The plates are shaken and incubation takes place for one hour at 25° C. in darkness. The fluorescence is read at 380/460 nm using the Victor.

[2] = test system: rat glial cells C6; assay: Protection from necrosis induced by maitotoxin, C6 (wst-1 viability); assay type: cell-based
Protocol: (§1) Human neuroblastomas SHSY5Y and rat glial cells C6 are seeded at 25 000 cells per well in 96-well plates in DMEM 10% FBS for 24 hours. The L6 rat myoblasts are seeded at 1000 cells per well in DMEM 10% FBS on 96-well microplates coated beforehand with gelatin 0.5% PBS. After culture for 3 days the medium is removed and replaced with a differentiation medium (DMEM+10 μg/ml of insulin+100 μg/ml of transferrin). 50 μl of product A plus 50 μl of solvent or 50 μl of product B are placed in the wells. After incubation for 1 hour at 37° C. under an atmosphere of 5% CO2, 10 μl of maitotoxin is added in order to obtain a final concentration of 0.1 nM to 1 nM (according to the cell type). After incubation for 3 hours at 37° C. under an atmosphere of 5% CO2, the cell viability is determined by adding 10 μl of tetrazolium salts (wst-1, Roche, ref: 1644807). The tetrazolium salts are cleaved into formazan molecules by mitochondrial dehydrogenases. The quantity of formazan formed is directly correlated to the number of metabolically active cells in the culture. Measurement of the absorbance of the formazan is carried out using a multiwell photometer at a wavelength of 420 nm against a reference wavelength of 620 nm.
(§2) The theoretical effect was obtained by multiplying the percentage of dead cells in the presence of product A by the percentage of dead cells in the presence of product B (Table 3). The percentage protection against cell death induced by MTX being the percentage of cells kept alive in the presence of the product or products.
In the light of the previous results, the combination of Example 1 with product A and product B at a rate of 100 μM of each of the products is carried out on human neuroblastomas (SHSY5Y; (Table 5A) and on glial cells with 25 μM of product A and 50 μM of product B (C6; Table 5B) on a larger number of cases.

[3] = test system: L6 Myoblasts differentiated to myotubes (rat skeletal muscle cells); assay: Protection from necrosis induced by maitotoxin, L6 myoblasts differentiated to myotubes; assay type: cell-based; conditions: single product at 100 μM
Protocol: as §1
The theoretical effect was obtained by multiplying the percentage of dead cells in the presence of product A by the percentage of dead cells in the presence of product B (Table 3). […]

[4] = test system: lipidic peroxidation of rat cerebral cortex homogenate; assay: In vitro lipidic peroxidation (Fenton reaction, MDA) in rat cerebral cortex membranes; assay type: biochemical; conditions: iron/ascorbate, read-out: Inhibition of lipidic peroxidation [IC50 (μM)]
Protocol: The test consists of inducing lipidic peroxidation by Fenton reactions in the presence of iron and ascorbate. The degree of lipidic peroxidation is determined by the concentration of malonaldehyde (MDA). The MDA produced by the lipidic peroxidation of unsaturated fatty acids is a good indicator of lipidic peroxidation (Esterbauer et al, 1990; Meth. Enzymol. 186: 407421). For this colorimetric test, the condensation of a molecule of MDA with two molecules of chromogenic reagent R (N-methyl-2-phenylindole) produces a stable chromophore the maximum absorbance wavelength of which is equal to […].
The membranes are prepared from the cortexes of male Sprague Dawley rats weighing 200 to 250 g. The animals are sacrificed by decapitation and the brains are immediately removed and rinsed in cold Tris HCl 20 mM pH 7.4. The cortexes, after dissection and removal of the white matter, are then ground with the Thomas potter, in Tris HCl buffer 20 mM pH 7.4 at 4° C. The homogenate obtained is centrifuged at low speed in order to eliminate the large debris (515 g for 15 minutes at 4° C.). The supernatant is then distributed into polycarbonate centrifugation tubes and centrifuged at 51500 g for 25 min at 4° C. The membrane pellets are kept at −80° C.
On the day of the experiment, the frozen membranes are resuspended at a concentration of 0.5 equivalent grams of cortex per 5 ml of Tris HCl buffer 20 mM pH 7.4 and homogeneized using a combitips. In 96-well “deep-well” 1 ml polypropylene plates with a conical base, 5 μl per well of the product to be tested or of solvent is mixed with 40 μl of rat cerebral cortex homogenate by centrifugation (800 rpm). The plates are covered with a self-adhesive aluminium sheet and incubated at 37° C. for 15 minutes under agitation. […]
The membranes and the supernatants are separated by filtration under vacuum on a 96-well plate with a multiscreen filtering base NA (Millipore, ref: MANANLY 50). The absorbance of the supernatants recovered in the 96-well plates is read using a photometer.

[5] = test system: 8-isoPG1F2α level in rat glial cells C6; assay: In situ isoprostane level (8-isoPG1F2α) in C6 cells treated with maitotoxin; assay type: cell-based; conditions: 3 h, read-out: Inhibition of the isoprostane count in situ (C6) [IC50 (μM)]
Protocol: 8-isoPG1F2α is part of a family of compounds the first synthesis stage of which (peroxidation of arachidonic acid) is carried out in a non-enzymatic manner in the presence of free radicals (Morrow and coll, 1990). Measurement of the 8-iso PGF2α level is considered as a reliable marker of the oxidation stress.
The rat glial cells C6 were seeded at 25 000 cells per well in 96-well plates in DMEM 10% FBS. The next day, 100 μl of product A was placed in the wells. After incubation for 1 hour at 37° C. under an atmosphere of 5% CO2, 10 μl containing maitotoxin is added in order to obtain a final concentration in the well of 1 nM. After incubation for 3 hours, the supernatants are removed and frozen at −20° C. The 8-isoPG1F2α level is measured using a specific EIA dosage kit (Cayman chemical, ref: 516351).

[6] = test system: human neuroblastomas SHSY5Y; assay: Protection from necrosis induced by maitotoxin, SHSY5Y (wst-1 viability); assay type: cell-based; conditions: for Protection from necrosis induced by MTX: SHSY5Y, n=2, 0.1 nM maitotoxin; for Protection from necrosis induced by MTX on SHSY5Y: n = 8, single product at 100 μM
Protocol: as §1, §2
In a first series of experiments, the concentration of product A in Example 1 is fixed (100 μM), product B is added at concentrations varying from zero to 100 μM (Table 4A). In a second series of experiments, product B of Example 1 is fixed at 100 μM, product A is added at concentrations varying from zero to 100 μM (Table 4B).

[7] = single product at 50 μM, n = 3 for Example 2, else n = 1
[8] = single product at 100 μM, n = 1

CCCC[C@@H](C=O)NC(=O)[C@H](CC(C)C)NC(=O)OCc1ccccc1 [EXAMPLE 3 B]
IC50 [1]: 2.8 nM | Protection from necrosis induced by MTX on C6 [2, 7]: 13.03% | Protection from necrosis induced by MTX on C6 [2, 8]: 0.84% | Protection from necrosis induced by MTX on L6 Myoblasts differentiated to myotubes [3]: 5.09%

CC(C)(C)c1cc(C(=O)O)cc(C(C)(C)C)c1O [EXAMPLE 1 A, 3-5-di-tert-butyl-4-hydroxybenzoic acid]
IC50 [4]: 3.7 µM | IC50 ([5]; n = 3, maitotoxin 1 nM): 101 µM | Protection from necrosis induced by MTX ([6]; single compound at 12.5 μM): 5.18 ± 1.81% | Protection from necrosis induced by MTX ([6]; single compound at 25 μM): 7.45 ± 1.65% | Protection from necrosis induced by MTX ([6]; single compound at 50 μM): 8.87 ± 0.34% | Protection from necrosis induced by MTX ([6]; single compound at 100 μM): 8.68 ± 0.3% | Protection from necrosis induced by MTX on SHSY5Y [6]: 19.48 ± 5.20% | Protection from necrosis induced by MTX on SHSY5Y ([6]; listed as 3,5-di-tert-butyl-4-hydroxybenzoic acid): less than 20% | Protection from necrosis induced by MTX on C6 ([2]; single product at 25 μM): 21.23% | Protection from necrosis induced by MTX on C6 ([2]; single product at 25 μM, listed as 3-5-di-tert-butyl-4-hydroxybenzoic acid): ~20% | Protection from necrosis induced by MTX on C6 ([2]; single product at 25 μM, listed as EXAMPLE 4 A): 16.17% | Protection from necrosis induced by MTX on C6 [2, 7]: 12.51% | Protection from necrosis induced by MTX on C6 [2, 8]: 30.84%

COc1ccc2c(c1)Nc1ccccc1S2 [EXAMPLE 2 A, 2-methoxy-10H-phenothiazine]
IC50 [4]: 0.19 µM | IC50 ([5]; Rattus norvegicus, Glial cell): 0.4 µM | Protection from necrosis induced by MTX on C6 [2, 7]: 6.56 ± 1.6% | Protection from necrosis induced by MTX on C6 ([2]; single product at 50 μM, n = 3 for Example 2, else n = 1, listed as 2-methoxy-10H-phenothiazine): inactive | Protection from necrosis induced by MTX on C6 [2, 8]: 10.45% | Protection from necrosis induced by MTX on L6 Myoblasts differentiated to myotubes [3]: 10.94%

From US20070265208A1, “Association of calpain inhibitors and reactive oxygen species trapping agents” (priority 2000, published 2007)
